Counter-ions that a name gives are not always drawn. Like-named read-outs stand apart in the source and are kept apart here.
Experiments:
[1] = tested on: NCI-H292 lung cancer cells; test: FDA drug screening, complete media vs cholesterol-free media with simvastatin (TABLE 2); assay type: cell-based, human
[2] = tested on: NCI-H292 lung cancer cells; test: FDA drug screening, complete media vs cholesterol-free media without statin (TABLE 1); assay type: cell-based, human
[3] = NCI-H292 cells, FDA drug library screen, cholesterol-free media with simvastatin 0.04 μM
[4] = NCI-H292 cells, FDA drug library screen, complete media
[5] = complete media vs cholesterol-free media + simvastatin (0.04 μM), >0 enhanced anti-cancer activity, about 0 neutral, <0 antagonist
[6] = NCI-H292 cells, cholesterol-free media without statin
[7] = complete vs cholesterol-free media, greater than 0 enhanced anti-cancer activity, about 0 neutral, below 0 antagonists
[8] = complete media minus cholesterol-free media + simvastatin, >0 enhanced anti-cancer activity, about 0 neutral, <0 antagonist
[9] = Complete minus Cholesterol-free, greater than 0 enhanced anti-cancer activity, about 0 neutral, below 0 antagonists
[10] = NCI-H292 cells in cholesterol-free media without statin
[11] = NCI-H292 cells in complete media
[12] = NCI-H292 cells, drug in cholesterol-free media with simvastatin 0.04 μM
[13] = NCI-H292 cells, drug in complete media
[14] = NCI-H292 cells, cholesterol-free media without statin, FDA drug library screen
[15] = NCI-H292 cells, complete media, FDA drug library screen
[16] = complete vs cholesterol-free media, >0 enhanced anti-cancer activity, about 0 neutral, <0 antagonist
[17] = Complete minus Cholesterol-free, […]
[18] = NCI-H292 cells, FDA library drug in cholesterol-free media with simvastatin 0.04 μM
[19] = NCI-H292 cells, FDA library drug in complete media
[20] = complete media vs cholesterol-free media + simvastatin (0.04 μM), […]
[21] = NCI-H292 cells, cholesterol-free media with simvastatin 0.04 μM, cell growth value in FDA drug screen
[22] = NCI-H292 cells, complete media, cell growth value in FDA drug screen
[23] = Complete minus Cholesterol-free, >0 enhanced anti-cancer activity, about 0 neutral, <0 antagonist
[24] = NCI-H292 cells, cholesterol-free media with simvastatin 0.04 μM, FDA drug library screen (TABLE 2)
[25] = NCI-H292 cells, complete media, FDA drug library screen (TABLE 2)
[26] = complete media minus cholesterol-free media + simvastatin (0.04 μM), >0 enhanced anti-cancer activity, about 0 neutral, <0 antagonist
[27] = Complete minus Cholesterol-free, greater than 0 enhanced anti-cancer activity, about 0 neutral, below 0 antagonist
[28] = NCI-H292 cells, FDA drug library screen, cholesterol-free media without statin

FC(F)(F)c1ccc(CNc2ccc(Cc3c[nH]c4ncc(Cl)cc34)cn2)cn1 [Pexidartinib (hydrochloride)]
Cholesterol-free media + simvastatin (0.04 μM) [1, 3]: 1.136
Complete Media [1, 4]: 1.002
Difference [1, 5]: −0.13
Cholesterol-free [2, 6]: 1.204
Complete ([2]; NCI-H292 cells, complete media): 0.7514
Difference [2, 7]: −0.45

CN1[C@@H]2CC[C@H]1C[C@@H](OC(=O)C(CO)c1ccccc1)C2 (some centres unmarked) [Atropine]
Cholesterol-free media + simvastatin (0.04 μM) [1]: 1.317
Difference [1]: −0.28
Cholesterol-free [2]: 1.317
Complete [2]: 0.8977
Difference [2]: −0.42

CC(C)(C)CC(C)(C)c1ccc(O)c(Cc2ccc(Cl)cc2Cl)c1 [Clofoctol]
Cholesterol-free media + simvastatin (0.04 μM) [1, 3]: 1.057
Complete Media [1, 4]: 1.232
Difference [1, 8]: 0.17
Difference [2, 9]: −0.85
Cholesterol-free [2, 10]: 1.815
Complete [2, 11]: 0.9672

CNC(=O)c1ccccc1Sc1ccc2c(/C=C/c3ccccn3)n[nH]c2c1 [Axitinib]
Cholesterol-free media + simvastatin (0.04 μM) [1, 12]: 0.9239
Complete Media [1, 13]: 0.7152
Difference [1, 5]: −0.21
Cholesterol-free [2, 14]: 0.7104
Complete [2, 15]: 1.034
Difference [2, 16]: 0.32

Cc1ccccc1-n1c(CF)nc2ccc(N)cc2c1=O [Afloqualone]
Cholesterol-free media + simvastatin (0.04 μM) [1, 3]: 1.16
Complete Media [1, 4]: 1.332
Difference ([1]; complete media minus cholesterol-free media + simvastatin, […]): 0.17
Difference [2, 17]: 0.04
Cholesterol-free [2, 14]: 1.063
Complete [2, 15]: 1.104

CC[N+](C)(CC)CCOC(=O)C(O)(c1ccccc1)c1ccccc1 [Methylbenactyzium Bromide]
Cholesterol-free media + simvastatin (0.04 μM) [1, 18]: 1.651
Complete Media [1, 19]: 1.081
Difference [1, 20]: −0.57
Difference [2, 17]: 0.02
Cholesterol-free [2, 14]: 0.9201
Complete [2, 15]: 0.945

COC(=O)c1cc(OC)c2c(c1-c1c(CO)cc(OC)c3c1OCO3)OCO2 [Bicyclol]
Cholesterol-free media + simvastatin (0.04 μM) [1, 18]: 1.331
Complete Media [1, 19]: 1.025
Difference [1, 5]: −0.31
Cholesterol-free [2, 14]: 0.552
Complete [2, 15]: 0.7456
Difference [2, 16]: 0.19

O=C(O)CC(O)(CC(=O)O)C(=O)O
Cholesterol-free media + simvastatin (0.04 μM) [1, 21]: 0.864
Complete Media [1, 22]: 0.9089
Difference [1, 8]: 0.04
Difference [2, 23]: −0.20
Cholesterol-free [2, 6]: 1.776
Complete ([2]; NCI-H292 cells, complete media): 1.574

CN(C)N(C)C(=O)[C@@]1(Cc2ccccc2)CCCN(C(=O)[C@@H](Cc2c[nH]c3ccccc23)NC(=O)C(C)(C)N)C1 [Anamorelin (hydrochloride)]
Cholesterol-free media + simvastatin (0.04 μM) [1, 24]: 1.088
Complete Media [1, 25]: 1.064
Difference [1, 26]: −0.02
Difference [2, 9]: −0.93
Cholesterol-free [2, 10]: 1.922
Complete [2, 11]: 0.9877

COc1cc2nccc(Oc3ccc(NC(=O)C4(C(=O)Nc5ccc(F)cc5)CC4)cc3)c2cc1OC [Cabozantinib (S-malate)]
Cholesterol-free media + simvastatin (0.04 μM) [1, 18]: 1.216
Complete Media [1, 19]: 0.9255
Difference [1, 5]: −0.29
Difference [2, 27]: −0.18
Cholesterol-free [2, 28]: 1.011
Complete [2, 4]: 0.8269

CCOc1nc2cccc(C(=O)OC(C)OC(=O)OC3CCCCC3)c2n1Cc1ccc(-c2ccccc2-c2nnn[nH]2)cc1 (centres unmarked) [Candesartan Cilexetil]
Cholesterol-free media + simvastatin (0.04 μM) [1, 12]: 1.18
Complete Media [1, 13]: 0.9738
Difference [1, 5]: −0.21
Difference [2, 27]: −0.16
Cholesterol-free [2, 28]: 1.093
Complete [2, 4]: 0.9304

OC[C@@H](O)[C@@H](O)[C@H](O)[C@H](O)CO [D-Mannitol]
Cholesterol-free media + simvastatin (0.04 μM) [1, 3]: 1.033
Complete Media [1, 4]: 1.748
Difference [1, 8]: 0.71
Cholesterol-free [2, 14]: 0.8621
Complete [2, 15]: 1.662
Difference [2, 16]: 0.80

COc1nc(N)nc2c1ncn2[C@@H]1O[C@H](CO)[C@@H](O)[C@@H]1O [Nelarabine]
Cholesterol-free media + simvastatin (0.04 μM) [1, 24]: 0.8366
Complete Media [1, 25]: 0.8526
Difference [1, 26]: 0.02
Difference [2, 9]: −0.59
Cholesterol-free [2, 10]: 1.291
Complete [2, 11]: 0.7049

C=CCc1ccc(O)c(OC)c1 [Eugenol]
Cholesterol-free media + simvastatin (0.04 μM) [1, 3]: 0.8347
Complete Media [1, 4]: 1.009
Difference [1, 8]: 0.17
Cholesterol-free [2, 6]: 1.418
Complete ([2]; NCI-H292 cells, complete media): 1.048
Difference [2, 7]: −0.37

Pimavanserin tartrate
Cholesterol-free media + simvastatin (0.04 μM) [1, 3]: 1.092
Complete Media [1, 4]: 0.9419
Difference [1, 20]: −0.15
Cholesterol-free [2, 6]: 1.261
Complete ([2]; NCI-H292 cells, complete media): 0.9005
Difference ([2]; complete vs cholesterol-free media, […]): −0.36

CC(C)(C)NC(=O)[C@@H]1C[C@@H]2CCCC[C@@H]2CN1C[C@@H](O)[C@H](Cc1ccccc1)NC(=O)[C@H](CC(N)=O)NC(=O)c1ccc2ccccc2n1 [Saquinavir]
Cholesterol-free media + simvastatin (0.04 μM) [1, 12]: 0.9867
Complete Media [1, 13]: 0.801
Difference [1, 5]: −0.19
Cholesterol-free [2, 6]: 1.314
Complete ([2]; NCI-H292 cells, complete media): 0.9252
Difference [2, 7]: −0.39

Cc1cc(=O)[nH]c(=S)[nH]1 [Methylthiouracil]
Cholesterol-free media + simvastatin (0.04 μM) [1, 12]: 1.089
Complete Media [1, 13]: 0.882
Difference [1, 5]: −0.21
Cholesterol-free [2, 6]: 1.055
Complete ([2]; NCI-H292 cells, complete media): 0.7083
Difference [2, 7]: −0.35

COC(=O)C[C@](O)(CCC(C)(C)O)C(=O)O[C@@H]1C(OC)=C[C@]23CCCN2CCc2cc4c(cc2[C@H]13)OCO4 [Harringtonine]
Cholesterol-free media + simvastatin (0.04 μM) [1, 24]: −0.01111
Complete Media [1, 25]: −0.002434
Difference ([1]; complete media minus cholesterol-free media + simvastatin (0.04 μM), […]): 0.01
Difference [2, 17]: −0.01
Cholesterol-free [2, 14]: 0.0181
Complete [2, 15]: 0.006818

C[C@@H]1CCN(C(=O)CC#N)C[C@@H]1N(C)c1ncnc2[nH]ccc12 [Tofacitinib]
Cholesterol-free media + simvastatin (0.04 μM) [1, 21]: 1.188
Complete Media [1, 22]: 1.224
Difference [1, 8]: 0.04
Difference [2, 23]: −0.07
Cholesterol-free [2, 14]: 1.303
Complete [2, 15]: 1.238

From patent publication US20250144067A1, “PERSONALIZED STARVATION THERAPY FOR CANCER” (Faeth Therapeutics, Inc., priority 2021, published 2025)
